Test results from paper PMC5608352, “Formyl peptide derived lipopeptides disclose differences between the receptors in mouse and men and call the pepducin concept in question” (PLoS ONE, 2017).
“Also recorded” adds a separate entry of the source. Blank lines part the entries; values can stand above or below the compound they belong to. Residues, ends and D or L forms follow the SMILES beside them. *: point of attachment. Palmitoyl = CCCCCCCCCCCCCCCC(=O)*

How the values were obtained:
mouse neutrophils [1] = target: T1, mouse neutrophils (Mus musculus, UniProt O88536); test: Direct activation: superoxide release (isoluminol/HRP chemiluminescence), WT mouse bone marrow neutrophils; type: cell-based; settings: for EC50: approximate value given in running text
T1 sequence (O88536 1-351): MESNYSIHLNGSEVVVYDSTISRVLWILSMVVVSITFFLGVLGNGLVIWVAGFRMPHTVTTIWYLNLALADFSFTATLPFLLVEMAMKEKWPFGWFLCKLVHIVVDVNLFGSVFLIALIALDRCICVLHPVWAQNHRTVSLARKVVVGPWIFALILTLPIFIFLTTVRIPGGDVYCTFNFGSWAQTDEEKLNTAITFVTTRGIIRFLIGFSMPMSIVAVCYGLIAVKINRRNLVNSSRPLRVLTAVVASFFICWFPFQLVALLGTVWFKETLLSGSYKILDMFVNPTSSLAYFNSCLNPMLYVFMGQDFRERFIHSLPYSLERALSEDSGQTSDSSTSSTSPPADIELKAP
Source text: (§1) Mice (8–12 weeks of age) were killed by cervical dislocation, the femurs and tibias were removed and freed of soft tissue attachments, and the extreme distal tip of each extremity was cut off. KRG without Ca^2+ and Mg^2+ (KRG-) was forced through the bone by using a 1-mL syringe with a 27-gauge needle. After dispersing cell clumps and removing the debris, the bone marrow granulocytes were isolated according to an earlier described procedure with some modifications. Briefly, a cell suspension in 2 mL of KRG- was laid on top of a three-layer Percoll gradient (1.095, 1.085, and 1.070 g/mL). The density of each Percoll solution was verified using density marker beads. After centrifugation at 500 × g for 30 min at 4°C in a swinging bucket rotor, the lowest band (1.085/1.095 g/mL interface) was collected as the neutrophil fraction. After washing with KRG-, remaining red blood cells were eliminated by hypotonic lysis. After a final wash with KRG-, the cells were resuspended in KRG. The cell number and population of bone marrow cells were determined by flow cytometry based on forward scatter (size) and side scatter (density) localization.
(§2) NADPH-oxidase activity was determined using an isoluminol and HRP-enhanced chemiluminescence (CL) system that allow for the determination of superoxide production. The CL activity was measured in a six-channel Biolumat LB 9505 apparatus (Berthold Co., Wildbad, Germany), using disposable 4-mL polypropylene tubes with 1 mL reaction mixture. The tubes contained 4 U HRP and 10 μg/mL isoluminol together with the cells that were equilibrated in the Biolumat for 5 min at 37°C, after which the stimulus solution (100 μL) was added. The light emission was recorded continuously over time and presented as superoxide production (in arbitrary light units, cpm x10^-6) as a function of time (min). The activity before stimulus addition was recorded as basal line and this activity was not changed in vehicle control samples. Since the FPR/Fpr-mediated superoxide production with respect to the onset and decline are very similar, the peak activities were used to compare the responses induced.
Naïve bone marrow cells produce very low levels of superoxide upon stimulation and to increase this production the cells were routinely primed for one hour at RT followed by TNF-α (10 ng/mL, final concentration) priming for a period of 20 min at 37°C [10]. The cells were then kept on ice until further analysis, as described above. The reason for choosing the chemiluminescence based NADPH-oxidase assay system was that very few cells are required, allowing us to monitor and quantify receptor-mediated events with the limited number of mouse bone marrow neutrophils available.
Data analysis was performed using Graph Pad Prism 7.0. The EC50/IC50 values were determined from experiments in which the activities were normalized to the response induced by maximal response or induced by agonist in the absence of inhibitor. The statistical analysis was performed on raw data using Student’s t-test when two groups were compared or one-way ANOVA with Dunnett’s multiple comparisons test in comparison to the control response when three groups were compared. * p ≤ 0.05 was considered significant.

FPR2 [2] = test: Receptor preference in human neutrophils (FPR2 versus FPR1); type: cell-based; settings: conclusion from superoxide release experiments
Source text: (§3) Human peripheral blood neutrophils were isolated from buffy coats from healthy blood donors using dextran sedimentation and Ficoll-Paque gradient centrifugation as described. The remaining erythrocytes were disrupted by hypotonic lysis and the neutrophils were washed twice, suspended in KRG and, stored on melting ice until use. This isolation process permits cells to be purified with minimal granule mobilization. The buffy coats were obtained from the blood bank at Sahlgrenska University Hospital. Ethics approval was not needed since the buffy coats were provided anonymously and could not be traced back to a specific individual. This is in line with Swedish legislation section code 4§ 3p SFS 2003:460 (Lag om etikprövning av forskning som avser människor).
(§4) NADPH-oxidase activity was determined using an isoluminol and HRP-enhanced chemiluminescence (CL) system that allow for the determination of superoxide production. The CL activity was measured in a six-channel Biolumat LB 9505 apparatus (Berthold Co., Wildbad, Germany), using disposable 4-mL polypropylene tubes with 1 mL reaction mixture. […] The light emission was recorded continuously over time and presented as superoxide production (in arbitrary light units, cpm x10^-6) as a function of time (min). The activity before stimulus addition was recorded as basal line and this activity was not changed in vehicle control samples. […]

FPR1 = test: Inhibition of fMLF-induced superoxide release, human neutrophils; type: cell-based; settings: pepducin 1 μM; fMLF 50 nM
Source text: as §3, §4

Fpr2 [3] = target: T2, Fpr2 (Mus musculus, UniProt O88536); test: Receptor preference in mouse neutrophils (Fpr2 versus Fpr1); type: cell-based; settings: conclusion from superoxide release, Fpr2^-/- cells, desensitization and inhibitors
T2 construct: WT mouse neutrophils (5 x 10^4 cells) were pre-incubated without (solid line) or with mF2Pal16; endogenous in cells; host or cells: bone marrow neutrophils of C57BL/6 wild-type mice, TNF-alpha primed
T2 sequence (O88536 1-351): T1 sequence (O88536 1-351)
Source text: (§5) C57BL/6 wild-type mice were purchased from Charles River Laboratories and Fpr2^−/− mice generated as described previously, were generously provided by Dr Ji Ming Wang, Frederick National Laboratory for Cancer Research, USA. Mice were kept under standard temperature and light conditions and fed laboratory chow and water ad libitum, at the Department of Rheumatology and Inflammation Research, University of Gothenburg. Sex matched WT and Fpr2^-/- animals (age 8–10 weeks) were used to isolated bone marrow derived neutrophils. The studies performed were approved by the Ethical Committee for Animal Experimentation, Göteborg, Sweden.
(§6) Mice (8–12 weeks of age) were killed by cervical dislocation, the femurs and tibias were removed and freed of soft tissue attachments, and the extreme distal tip of each extremity was cut off. […] The cell number and population of bone marrow cells were determined by flow cytometry based on forward scatter (size) and side scatter (density) localization.
(§7) NADPH-oxidase activity was determined using an isoluminol and HRP-enhanced chemiluminescence (CL) system that allow for the determination of superoxide production. The CL activity was measured in a six-channel Biolumat LB 9505 apparatus (Berthold Co., Wildbad, Germany), using disposable 4-mL polypropylene tubes with 1 mL reaction mixture. […]

FPR2 [4] = target: T3, FPR2 (Homo sapiens, UniProt P25090); test: Inhibition of WKYMVM-induced superoxide release, human neutrophils; type: cell-based; settings: pepducin 1 μM pre-incubated (mF2Pal16, F1Pal16: 5 min); WKYMVM 50 nM
T3 construct: Human peripheral blood neutrophils were isolated from buffy coats from healthy blood donors; endogenous in cells; host or cells: human peripheral blood neutrophils from buffy coats of healthy donors
T3 sequence (P25090 1-351): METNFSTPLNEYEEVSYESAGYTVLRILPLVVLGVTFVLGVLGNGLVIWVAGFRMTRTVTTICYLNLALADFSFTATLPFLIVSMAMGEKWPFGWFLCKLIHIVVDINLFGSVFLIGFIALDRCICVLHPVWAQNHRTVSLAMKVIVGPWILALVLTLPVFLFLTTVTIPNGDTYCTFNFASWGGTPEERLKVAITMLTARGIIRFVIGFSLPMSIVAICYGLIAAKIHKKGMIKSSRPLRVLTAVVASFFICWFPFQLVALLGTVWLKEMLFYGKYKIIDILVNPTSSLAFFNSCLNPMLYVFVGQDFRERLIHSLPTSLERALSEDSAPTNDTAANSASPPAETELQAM
Source text: as §3
as §2, with “Since the FPR/Fpr-mediated superoxide production with respect to the onset and decline are very similar, the peak activities were used to compare the responses induced.” left out
(§8) Data analysis was performed using Graph Pad Prism 7.0. The EC50/IC50 values were determined from experiments in which the activities were normalized to the response induced by maximal response or induced by agonist in the absence of inhibitor. […]
Human neutrophils (10^5 cells) were pre-incubated without (solid line) or with mF2Pal16 (1 μM) for 5 min before stimulation with A) the FPR2 specific agonist WKYMVM (50 nM, indicated by the arrow). […] The release of superoxide anions was measured continuously. […]

Fpr2^-/- neutrophils = test: Direct activation: superoxide release, Fpr2^-/- mouse neutrophils compared with WT; type: cell-based
Source text: as §5, §6, §7

mouse neutrophils [5] = target: T1, mouse neutrophils; test: Receptor (cross-)desensitization, superoxide release, WT mouse neutrophils; type: cell-based; settings: then pepducin 1 μM
Procedure: NADPH-oxidase activity was determined using an isoluminol and HRP-enhanced chemiluminescence (CL) system that allow for the determination of superoxide production [29, 30]. The CL activity was measured in a six-channel Biolumat LB 9505 apparatus (Berthold Co., Wildbad, Germany), using disposable 4-mL polypropylene tubes with 1 mL reaction mixture. The tubes contained 4 U HRP and 10 μg/mL isoluminol together with the cells that were equilibrated in the Biolumat for 5 min at 37°C, after which the stimulus solution (100 μL) was added. The light emission was recorded continuously over time and presented as superoxide production (in arbitrary light units, cpm x10^-6) as a function of time (min). […] Since the FPR/Fpr-mediated superoxide production with respect to the onset and decline are very similar, the peak activities were used to compare the responses induced.
The release of superoxide anions was continuously measured. […]

human neutrophils = test: Direct activation: superoxide release (isoluminol/HRP chemiluminescence), human neutrophils; type: cell-based; settings: 10^5 cells, 37°C, isoluminol/HRP CL, pepducin 1 μM
Source text: as §3, §4

Fpr2 [6] = target: T2, Fpr2; test: Inhibition of F2Pal16-induced superoxide release, WT mouse neutrophils; type: cell-based; settings: Boc2 2 μM or peptidomimetic inhibitor 1 μM (five experiments), or mF2Pal16 500 nM against F2Pal16 500 nM (three experiments); 5 min pre-incubation
Source text: as §1, §4, §8

Fpr2 [7] = target: T2, Fpr2; parameters: method as in PMID 27614010; settings: ref [12]; cited from earlier work
Source text: When looking at the FPRs in different species it is clear that the receptor family has a complex evolutionary history, as illustrated by the fact that the number of genes in the family vary markedly in mouse and man. […] As different mouse models constitute important tools for translational studies aiming to understa ... || Genetically modified mouse strains and mouse disease models provide excellent tools to study the function of neutrophil FPRs in vivo. Such studies have indicated Fprs (in particular Fpr2) as important regulators of the physiological processes leading to resolution of inflammation. However, a direct translation of mouse data to human studies is hampered due to the distant phylogenetic relationship between mouse and human receptors. In addition to the different number of Fpr genes in mice and humans and an incomplete understanding of the evolutionary relationship between human FPRs ...

Compound: CCCCCCCCCCCCCCCC(=O)N[C@@H](CCCCN)C(=O)N[C@H](C(=O)N[C@@H](Cc1c[nH]cn1)C(=O)N[C@@H](CCCCN)C(=O)N[C@@H](CCC(N)=O)C(=O)NCC(=O)N[C@@H](CC(C)C)C(=O)N[C@H](C(=O)N[C@@H](CCCCN)C(=O)N[C@@H](CO)C(=O)N[C@@H](CO)C(=O)N[C@@H](CCCNC(=N)N)C(=O)N1CCC[C@H]1C(=O)N[C@@H](CC(C)C)C(=O)N[C@@H](CCCNC(=N)N)C(=O)N[C@H](C(=O)O)C(C)C)[C@@H](C)CC)[C@@H](C)CC [F1Pal16] (Palmitoyl-KIHKQGLIKSSRPLRV-OH)
EC50 (mouse neutrophils [1]): ~300 nM

Compound: CCCCCCCCCCCCCCCC(=O)N[C@@H](CCCCN)C(=O)N[C@H](C(=O)N[C@@H](Cc1c[nH]cn1)C(=O)N[C@@H](CCCCN)C(=O)N[C@@H](CCCCN)C(=O)NCC(=O)N[C@@H](CCSC)C(=O)N[C@H](C(=O)N[C@@H](CCCCN)C(=O)N[C@@H](CO)C(=O)N[C@@H](CO)C(=O)N[C@@H](CCCNC(=N)N)C(=O)N1CCC[C@H]1C(=O)N[C@@H](CC(C)C)C(=O)N[C@@H](CCCNC(=N)N)C(=O)N[C@H](C(=O)O)C(C)C)[C@@H](C)CC)[C@@H](C)CC [F2Pal16] (Palmitoyl-KIHKKGMIKSSRPLRV-OH)
EC50 (mouse neutrophils [1]): ~300 nM

Compound: CCCCCCCCCCCCCCCC(=O)N[C@@H](CCCCN)C(=O)N[C@H](C(=O)N[C@@H](Cc1c[nH]cn1)C(=O)N[C@@H](CCCNC(=N)N)C(=O)N[C@@H](CCC(N)=O)C(=O)NCC(=O)N[C@@H](CC(C)C)C(=O)N[C@H](C(=O)N[C@@H](CCCCN)C(=O)N[C@@H](CO)C(=O)N[C@@H](CO)C(=O)N[C@@H](CCCNC(=N)N)C(=O)N1CCC[C@H]1C(=O)N[C@@H](CC(C)C)C(=O)N[C@@H](CCCNC(=N)N)C(=O)N[C@H](C(=O)O)C(C)C)[C@@H](C)CC)[C@@H](C)CC [mF1Pal16] (Palmitoyl-KIHRQGLIKSSRPLRV-OH; N-terminus and C-terminus assumed)
receptor preference / modulation of FPR2 (versus FPR1) in human neutrophils (FPR2 [2]): very similar activities but with somewhat different potency; also recorded: preference for FPR2 over FPR1; also recorded: inhibits the FPR2 activity in human neutrophils; also recorded: negatively target human FPR2 | effect on fMLF response, human neutrophils (FPR1): did not affect the response | superoxide release / activation of WT mouse neutrophils (mouse neutrophils [1]; WT mouse (C57BL/6) bone marrow neutrophils, TNF-α primed, 5 x 10^4 cells, 37°C, isoluminol/HRP CL, peak activity, pepducin 1 μM in figures): triggered activation of the NADPH-oxidase in mouse neutrophils | relative potency, activation of WT mouse neutrophils (mouse neutrophils [1]; compared in words with derivatives or other pepducins, 1 μM in Figs 3, 6C, % of fMIFL (10 nM) peak, three independent experiments): much lower EC50 value as compared to that of F1Pal16 | receptor preference / modulation of Fpr2 (versus Fpr1) in mouse neutrophils (Fpr2 [3]): activates primarily Fpr2 in mouse neutrophils; also recorded: positively target the mouse Fpr2; also recorded: can act as an agonist for Fpr2 | effect on WKYMVM response, human neutrophils (FPR2 [4]): inhibited the response | superoxide release in Fpr2^-/- neutrophils compared with WT (Fpr2^-/- neutrophils; pepducin 1 μM, % of peak fMIFL (10 nM) response, p ≤ 0.05 significant): not abolished but significantly reduced | response to second stimulation after PSMα2 (mouse neutrophils [5]; first PSMα2 50 nM): non-responsive to a second stimulation | response to second stimulation after fMIFL (mouse neutrophils [5]; first fMIFL 10 nM): not fMIFL-stimulated cells were non-responsive | superoxide release / activation of human neutrophils (human neutrophils): Human neutrophils were not activated; also recorded: does not activate human neutrophils to produce superoxide

effect of inhibitor on F2Pal16 response, WT mouse neutrophils (Fpr2 [6]): significantly reduced
Compound: Lau-(Lys-βNSpe)6-NH2

Compound: WKYMVM [FPR2 specific agonist]
activity at mouse Fprs (earlier work) (Fpr2 [7]): low affinity for their mouse orthologous

Compound: fMIFL [reference compound]
activity at mouse Fprs (earlier work) (Fpr2 [7]): potently and selectively activate Fpr1 | fMIFL superoxide response in Fpr2^-/- versus WT neutrophils (Fpr2^-/- neutrophils; fMIFL 10 nM, reference response): comparable in WT and Fpr2 deficient neutrophils

Compound: fMLF
activity at mouse Fprs (earlier work) (Fpr2 [7]): low affinity for their mouse orthologous
